According to US20180296639A1, “THERAPEUTIC PEPTIDES” (Hoffmann-La Roche Inc., priority 2015, published 2018):

What was measured:
[1] = tested on: human retinal pericytes (hRP); assay: Apoptosis measurement by caspase-3 enzymatic activity in hRP; format: cell-based; conditions: 25 mM D-glucose for 72 hrs
Protocol: HRP were treated with normal glucose, L-glucose or high glucose for 48 hrs-72 hrs. […] Furthermore, GAPDH and Siah1 blocking peptides inhibited high glucose-induced hRP apoptosis (FIG. 5D Control Peptide p=0.0019, GAPDH peptide p=0.0090, Siah1 peptide p=0.0053).
(§1) HRP Treatment: Primary cultures of human retinal pericytes (hRP) (Cell Systems; Kirkland, Wash.) were seeded into tissue culture flasks coated with attachment factor (Cell Signaling; Danvers, Mass.). HRP were grown and cultured in Dulbecco's modified Eagle's medium normal glucose (5.5 mM DMEM 1×, Life Technologies; Carlsbad, Calif.) supplemented with 10% FBS, and cell growth supplements, including antibiotics (Lonza; Basel). All cultures were incubated at 37° C., 5% CO2 and 95% relative humidity (20.9% oxygen). Passages 5 to 7 were used for all experiments. HRP identity was confirmed by immunoreactivity of neuron glial 2 (NG2) (EMD Millipore; Temecula, Calif.). […] A FLAG tag peptide sequence enables detection and quantification of these peptides (FIG. 12).
Apoptosis Measurements: All apoptosis measurements were taken after 72 hrs of appropriate treatment. […] Samples were quantified using flow cytometry analysis performed at Vanderbilt's Flow Cytometry Shared Resource core laboratory. […] Activity was quantified using the EnzChek Caspase-3 Assay Kit (Life Technologies). […] Fluorescence emission at 440 nm was measured 2 hrs later.

GAPDH/Siah1 association = biological target: T1, GAPDH/Siah1 association (Homo sapiens, UniProt P04406+Q8IUQ4); assay: Co-immunoprecipitation (pull down) of GAPDH/Siah1 association in hRP; format: cell-based; conditions: high glucose 25 mM 48 hrs vs L-glucose 25 mM
T1 construct: immunoprecipitation (IP) with anti-Siah1, followed by western blot (WB) analysis of the immuno-complexes with anti-GAPDH; endogenous in cells; host or cells: primary human retinal pericytes (hRP), Cell Systems
T1 sequence (Q8IUQ4 whole entry): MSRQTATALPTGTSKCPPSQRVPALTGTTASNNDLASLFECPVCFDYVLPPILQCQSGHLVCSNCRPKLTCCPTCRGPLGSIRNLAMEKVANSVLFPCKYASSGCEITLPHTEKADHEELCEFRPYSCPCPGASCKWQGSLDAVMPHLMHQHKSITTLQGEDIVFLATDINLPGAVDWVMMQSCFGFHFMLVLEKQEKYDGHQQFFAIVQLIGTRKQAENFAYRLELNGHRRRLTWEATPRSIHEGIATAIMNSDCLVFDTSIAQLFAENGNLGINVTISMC
T1 sequence (P04406 2-335 limits assumed): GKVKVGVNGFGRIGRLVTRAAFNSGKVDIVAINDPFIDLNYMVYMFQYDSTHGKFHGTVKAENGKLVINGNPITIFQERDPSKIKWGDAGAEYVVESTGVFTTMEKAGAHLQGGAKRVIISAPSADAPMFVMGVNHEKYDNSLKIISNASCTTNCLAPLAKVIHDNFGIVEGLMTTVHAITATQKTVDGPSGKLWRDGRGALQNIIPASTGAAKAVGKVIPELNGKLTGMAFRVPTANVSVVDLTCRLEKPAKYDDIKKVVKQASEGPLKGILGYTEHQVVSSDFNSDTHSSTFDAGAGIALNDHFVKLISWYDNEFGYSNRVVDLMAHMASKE
Protocol: HRP were treated with normal glucose (5 mM), high glucose (25 mM) or L-glucose (25 mM) for 48 hrs.
HRP were treated with normal, osmotic control or high glucose plus 10 μM negative control siRNA, 10 μM Siah1-directed siRNA, 1 μM TAT-FLAG Control, 1 μM TAT-FLAG GAPDH peptide, 1 μM TAT-FLAG Siah1 peptide or 1 μM GAPDH+1 μM Siah1 peptides. Pull down assays were performed as described above. Our GAPDH peptide was designed to block the GAPDH binding site on Siah1 and the Siah1 peptide was designed to block the Siah1 binding site on GAPDH (Supplemental Table 1).
as §1, with “12). […]” for “12).”

Siah1 = Siah1 total protein western blot in hRP; format: cell-based, human; conditions: 25 mM D-glucose 48 hrs vs 25 mM L-glucose
Protocol: HRP were treated with normal glucose (5 mM D-glucose), osmotic control (25 mM L-glucose) or high glucose (25 mM D-glucose) for 48 hrs. Siah1 total protein increased 2-fold in cultures treated with high glucose compared to those treated with the osmotic control (p=0.0136). There was no significant difference between osmotic control and normal glucose treated cells (FIG. 1A).
Nuclear Fractionation and Western Blot Analysis: HRP were treated as necessary. Cells were harvested using TrypLE Express (Life Technologies), and lysed using radioimmunoprecipitation assay (RIPA) buffer (Qiagen; Limburg, Netherlands). The NE-PER nuclear and cytoplasmic extraction reagents (Thermo Scientific; Nashville, Tenn.) were used to separate lysates into cytosolic and nuclear fractions. Samples were equilibrated for total protein concentration, subjected to 10% SDS/PAGE, and gels were transferred to nitrocellulose membranes using the iBlot system (Life Technologies). […] (β-actin was used to determine total protein concentration. Membranes were incubated in Pierce ECL western blotting substrate and developed using ChemiDoc MP (Bio-Rad; Hercules, Calif.). At least three independent experiments were used to generate western blot quantification graphs. Blots were quantified using the ImageJ 1.47v software.

O=C[C@H](O)[C@@H](O)[C@H](O)[C@H](O)CO [high glucose, D-glucose]
increase in caspase-3-enzymatic activity [1]: 3 fold | increase in GAPDH/Siah1 association vs osmotic control (GAPDH/Siah1 association): 1.5 fold | increase of Siah1 total protein vs osmotic control (Siah1): 2 fold
